Tests used:
Assay type in all cases: cell-based
[1] = system: E. coli DH5α; assay: Antibacterial activity: MIC and growth curve against E. coli DH5α in 96-well plate; details: minimal inhibitory concentration against E. coli DH5α; 96-well plate, 5×10^5 CFU/mL, 37° C., judged after 8 h
Outline: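 Log-phase DH5α (OD600 about 0.5, 37° C, 185 rpm in LB) was pelleted, resuspended in fresh LB and seeded at 5×10^5 CFU/mL with recombinant protein at 50, 25 and 12.5 μg/mL (two-fold series), in triplicate. Plates were shaken at 175 rpm, 37° C, and OD600 was read every 30 min. MIC was the lowest concentration with no growth.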

[2] = system: E. coli BL21; assay: MIC against Gram-negative bacteria: E. coli BL21
Outline: (§1)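 Two-fold serial dilutions of each purified human EGF domain protein, three replicate wells per level, were combined with bacteria at a final 5×10^5 CFU/mL in LB. Cultures were shaken at 175 rpm, 37° C. The MIC was taken as the minimum concentration preventing growth.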

[3] = system: Pseudomonas aeruginosa; assay: MIC against Gram-negative bacteria: Pseudomonas aeruginosa
Outline: as §1

[4] = system: Klebsiella pneumonia; assay: MIC against Gram-negative bacteria: Klebsiella pneumonia
Outline: as §1

[5] = system: Enterobacter cloacae; assay: MIC against Gram-negative bacteria: Enterobacter cloacae
Outline: as §1

[6] = system: Aeromonas hydrophila; assay: MIC against Gram-negative bacteria: Aeromonas hydrophila
Outline: as §1

[7] = system: Citrobacter diversus; assay: MIC against Gram-negative bacteria: Citrobacter diversus
Outline: as §1

[8] = system: Moraxella catarrhalis; assay: MIC against Gram-negative bacteria: Moraxella catarrhalis
Outline: as §1

[9] = system: Proteus mirabilis; assay: MIC against Gram-negative bacteria: Proteus mirabilis
Outline: as §1

[10] = system: Proteus vulgaris; assay: MIC against Gram-negative bacteria: Proteus vulgaris
Outline: as §1

[11] = system: Serratia marcescens; assay: MIC against Gram-negative bacteria: Serratia marcescens
Outline: as §1

[12] = E. coli BL21, 96-well plate, 5×10^5 CFU/mL, 37° C., 10 h
[13] = Pseudomonas aeruginosa, 96-well plate, 5×10^5 CFU/mL, 37° C., 10 h
[14] = Klebsiella pneumonia, 96-well plate, 5×10^5 CFU/mL, 37° C., 10 h
[15] = Enterobacter cloacae, 96-well plate, 5×10^5 CFU/mL, 37° C., 10 h
[16] = Aeromonas hydrophila, 96-well plate, 5×10^5 CFU/mL, 37° C., 10 h
[17] = Citrobacter diversus, 96-well plate, 5×10^5 CFU/mL, 37° C., 10 h
[18] = Moraxella catarrhalis, 96-well plate, 5×10^5 CFU/mL, 37° C., 10 h
[19] = Proteus mirabilis, 96-well plate, 5×10^5 CFU/mL, 37° C., 10 h
[20] = Proteus vulgaris, 96-well plate, 5×10^5 CFU/mL, 37° C., 10 h
[21] = Serratia marcescens, 96-well plate, 5×10^5 CFU/mL, 37° C., 10 h
[22] = 10 h cultivation at 37° C., 5×10^5 CFU/mL, two-fold serial dilution
[23] = 96-well plate, 5×10^5 CFU/mL, 37° C., 10 h

PRT15 (GDHPCLPNPCHGGAPCQNLEAGRFHCQCPPGRVGPTCA; listed as Homo sapiens)
50 µg/mL: MIC (μg/mL) E. coli BL21 [2, 12] | MIC (μg/mL) E. cloacae [5, 15]
25 µg/mL: MIC [1] | MIC (μg/mL) P. aeruginosa [3, 13] | MIC (μg/mL) C. diversus [7, 17] | MIC (μg/mL) S. marcescens [11, 21]
12.5 µg/mL: MIC (μg/mL) K. pneumonia [4, 14] | MIC (μg/mL) A. hydrophila [6, 16] | MIC (μg/mL) M. catarrhalis [8, 18] | MIC (μg/mL) P. mirabilis [9, 19] | MIC (μg/mL) P. vulgaris [10, 20]

PRT1181 (KEAVCKQGCNLLHGGCTVPGECRCSYGWQGRFCD; listed as Homo sapiens)
25 µg/mL: MIC E. cloacae [5, 22] | MIC A. hydrophila [6, 22] | MIC S. marcescens [11, 22]
50 µg/mL: MIC E. coli BL21 [2, 22] | MIC K. pneumonia [4, 22] | MIC M. catarrhalis [8, 22] | MIC P. vulgaris [10, 22]
100 µg/mL: MIC P. mirabilis [9, 22]
12.5 µg/mL: MIC [1] | MIC P. aeruginosa [3, 22] | MIC C. diversus [7, 22]

PRT7 (TCLSSKEGTICSGNGVCSNELKCVCNRHWIGSDCN; listed as Homo sapiens)
12.5 µg/mL: MIC [1] | MIC (μg/mL) K. pneumonia [4, 14] | MIC (μg/mL) E. cloacae [5, 15] | MIC (μg/mL) C. diversus [7, 17] | MIC (μg/mL) S. marcescens [11, 21]
50 µg/mL: MIC (μg/mL) A. hydrophila [6, 16] | MIC (μg/mL) P. mirabilis [9, 19] | MIC (μg/mL) P. vulgaris [10, 20]
25 µg/mL: MIC (μg/mL) E. coli BL21 [2, 12] | MIC (μg/mL) P. aeruginosa [3, 13] | MIC (μg/mL) M. catarrhalis [8, 18]

PRT264 (SGQCLCRSGFAGTACELCAPGAFGPHCQAC; listed as Homo sapiens)
25 µg/mL: MIC (μg/mL) A. hydrophila ([6]; A. hydrophila, 10 h cultivation at 37° C., 5×10^5 CFU/mL) | MIC (μg/mL) M. catarrhalis ([8]; M. catarrhalis, 10 h cultivation at 37° C., 5×10^5 CFU/mL) | MIC (μg/mL) P. vulgaris ([10]; P. vulgaris, 10 h cultivation at 37° C., 5×10^5 CFU/mL)
50 µg/mL: MIC (μg/mL) E. coli BL21 ([2]; E. coli BL21, 10 h cultivation at 37° C., 5×10^5 CFU/mL) | MIC (μg/mL) K. pneumonia ([4]; K. pneumonia, 10 h cultivation at 37° C., 5×10^5 CFU/mL) | MIC (μg/mL) C. diversus ([7]; C. diversus, 10 h cultivation at 37° C., 5×10^5 CFU/mL)
12.5 µg/mL: MIC [1] | MIC (μg/mL) P. aeruginosa ([3]; P. aeruginosa, 10 h cultivation at 37° C., 5×10^5 CFU/mL) | MIC (μg/mL) E. cloacae ([5]; E. cloacae, 10 h cultivation at 37° C., 5×10^5 CFU/mL) | MIC (μg/mL) P. mirabilis ([9]; P. mirabilis, 10 h cultivation at 37° C., 5×10^5 CFU/mL) | MIC (μg/mL) S. marcescens ([11]; S. marcescens, 10 h cultivation at 37° C., 5×10^5 CFU/mL)

PRT555 (CDCSAAGTQGNACRKDPRVGRCLCKPNFQGTHCELCAPGFYGPGCQP; listed as Homo sapiens)
50 µg/mL: MIC [1] | MIC against E. cloacae [5, 23] | MIC against P. mirabilis [9, 23]
25 µg/mL: MIC against E. coli BL21 [2, 23] | MIC against K. pneumonia [4, 23] | MIC against A. hydrophila [6, 23] | MIC against M. catarrhalis [8, 23] | MIC against P. vulgaris [10, 23]
12.5 µg/mL: MIC against P. aeruginosa [3, 23] | MIC against C. diversus [7, 23] | MIC against S. marcescens [11, 23]

PRT994 (DHNECLSQPCHPGSTCLDLLATFHCLCPPGLEGQLCE; listed as Homo sapiens)
25 µg/mL: MIC ([3]; P. aeruginosa, 10 h cultivation at 37° C.) | MIC ([5]; E. cloacae, 10 h cultivation at 37° C.) | MIC ([9]; P. mirabilis, 10 h cultivation at 37° C.) | MIC ([11]; S. marcescens, 10 h cultivation at 37° C.)
12.5 µg/mL: MIC ([2]; E. coli BL21, 10 h cultivation at 37° C.) | MIC ([6]; A. hydrophila, 10 h cultivation at 37° C.) | MIC ([8]; M. catarrhalis, 10 h cultivation at 37° C.)
50 µg/mL: MIC [1] | MIC ([4]; K. pneumonia, 10 h cultivation at 37° C.) | MIC ([7]; C. diversus, 10 h cultivation at 37° C.) | MIC ([10]; P. vulgaris, 10 h cultivation at 37° C.)

Source: US9833497B2, “Human originated EGF domain proteins and use of the same” (CHENGDU SOURCEBIO LIMITED-LIABILITY COMPANY, priority 2013, dated 2017)
